Values of other authors in US11324822B2, “Combination of HDAC inhibitor and anti-PD-1 antibody for treatment of cancer” (priority 2015, dated 2022).

How the values were obtained:
[1] = in vivo
[2] = system: histone acetylation; settings: following the administration of entinostat

half-life [1]: about 100 hours
Structure (SMILES): Nc1ccccc1NC(=O)c1ccc(CNC(=O)OCc2cccnc2)cc1 [Entinostat, N-(2-aminophenyl)-4-[N-(pyridine-3-yl)methoxycarbonylamino-methyl]-benzamide]
changes in histone acetylation following administration [2]: persist for several weeks
